ChEMBL document CHEMBL2440091, “The enzyme 3-hydroxykynurenine transaminase as potential target for 1,2,4-oxadiazoles with larvicide activity against the dengue vector Aedes aegypti” (2013)
Converted amounts (≈) assume the structure as drawn. The source made the active and inactive calls. The calls are words filed in the database; no cut-off is given here.

Tests used:
Aedes aegypti [1] = assay: Larvicidal activity against fourth instar larvae of Aedes aegypti assessed as mortality after 48 hrs; type: functional
Aedes aegypti [2] = assay: Larvicidal activity against fourth instar larvae of Aedes aegypti assessed as induction of alterations in pigmentation pattern at 100 ppm after 24 hrs by microscopic analysis; type: functional, organism-based

SMILES	LC50 (Aedes aegypti [1]) [µg/mL]	Activity (Aedes aegypti [2])
Cc1ccc(-c2noc(CC(=O)O)n2)cc1	92.3 (≈ 423 µM)	–
O=C(O)CCc1cc(-c2ccccc2)no1	82.8 (≈ 381 µM)	Active
COC(=O)CCCc1nc(-c2ccc(Cl)c(Cl)c2)no1	6.8 (≈ 21.6 µM)	–
O=C(O)Cc1nc(-c2ccc(Cl)cc2)no1	49.3 (≈ 207 µM)	–
OCCCc1cc(-c2ccccc2)no1	> 100	–
O=C(O)CCc1nc(-c2ccccc2)no1	98.6 (≈ 452 µM)	–
Cc1ccccc1-c1noc(CCC(=O)O)n1	70.9 (≈ 305 µM)	–
Cc1cccc(-c2noc(CCC(=O)O)n2)c1	63.8 (≈ 275 µM)	–
O=C(O)Cc1nc(-c2ccc(Br)cc2)no1	67.9 (≈ 240 µM)	–
Cc1ccc(-c2noc(CCC(=O)O)n2)cc1	65.8 (≈ 283 µM)	–
O=C(O)Cc1nc(-c2ccccc2)no1	> 100	–
O=C(O)CCc1nc(-c2ccc(Br)cc2)no1	15.2 (≈ 51.2 µM)	Active
O=C(O)CCc1nc(-c2ccc(F)cc2)no1	81.2 (≈ 344 µM)	–
O=C(O)CCCc1nc(-c2ccc(I)cc2)no1	16.2 (≈ 45.2 µM)	–
COc1ccc(-c2noc(CCCC(=O)O)n2)cc1	> 100	–
COc1ccc(-c2noc(CCC(=O)O)n2)cc1	71.5 (≈ 288 µM)	–
COC(=O)CCc1nc(-c2ccccc2)no1	30.6 (≈ 132 µM)	–
O=C(O)CCc1nc(-c2ccc([N+](=O)[O-])cc2)no1	50.5 (≈ 192 µM)	–
O=C(O)CCCc1nc(-c2ccc(Br)cc2)no1	10.6 (≈ 34.1 µM)	–
O=C(O)CCCc1nc(-c2ccc3c(c2)OCO3)no1	72.9 (≈ 264 µM)	–
O=C(O)CCc1nc(-c2ccc(Cl)cc2)no1	28.1 (≈ 111 µM)	–
O=C(O)CCCc1nc(-c2ccc(Cl)cc2)no1	34.9 (≈ 131 µM)	–
COC(=O)CCCc1nc(-c2ccccc2)no1	59.9 (≈ 243 µM)	–
COC(=O)CCc1cc(-c2ccccc2)no1	13.2 (≈ 57.1 µM)	Active
Cc1cccc(-c2noc(CCCC(=O)O)n2)c1	75.9 (≈ 308 µM)	–
O=C(O)CCCc1nc(-c2ccccc2)no1	92.7 (≈ 399 µM)	–
CC(=O)CCc1nc(-c2ccccc2)no1	> 100	–
